{"source": "patent US6355799B1", "about": "“Substituted benzene compounds, process for their preparation, and herbicidal and defoliant compositions containing them” (ISK Americas Incorporated, priority 1997, dated 2002)", "assay_type_in_all_cases": "in vivo", "key": {"[1]": {"system": "redroot pigweed (Amaranthus retroflexus, AMARE)", "assay": "Pre-emerge test, greenhouse herbicide activity screening", "conditions": "pre-emerge, phytotoxicity rating 0-100 at 14 days after application", "summary_of_the_method": "(§1)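 Plants grown in 10 cm pots of sandy loam mix received acetone-dissolved compounds through a moving flat-fan nozzle. Doses ranged from 15 to 1000 g ai/ha. Pre-emerge pots were seeded one day earlier, post-emerge pots 8–21 days earlier. Fourteen days on, each pot was graded 0–100 for damage.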"}, "[2]": {"system": "barnyardgrass (Echinochloa crus-galli, ECHCG)", "assay": "Pre-emerge test, greenhouse herbicide activity screening", "conditions": "pre-emerge, phytotoxicity rating 0-100 at 14 days after application", "summary_of_the_method": "as §1"}, "[3]": {"system": "green foxtail (Setaria viridis, SETVI)", "assay": "Pre-emerge test, greenhouse herbicide activity screening", "conditions": "pre-emerge, phytotoxicity rating 0-100 at 14 days after application", "summary_of_the_method": "as §1"}, "[4]": {"system": "ivyleaf morningglory (Ipomoea hederacea, IPOHE)", "assay": "Pre-emerge test, greenhouse herbicide activity screening", "conditions": "pre-emerge, phytotoxicity rating 0-100 at 14 days after application", "summary_of_the_method": "as §1"}, "[5]": {"system": "johnsongrass (Sorghum halepense, SORHA)", "assay": "Pre-emerge test, greenhouse herbicide activity screening", "conditions": "pre-emerge, phytotoxicity rating 0-100 at 14 days after application", "summary_of_the_method": "as §1"}, "[6]": {"system": "lambsquarters (Chenopodium album, CHEAL)", "assay": "Pre-emerge test, greenhouse herbicide activity screening", "conditions": "pre-emerge, phytotoxicity rating 0-100 at 14 days after application", "summary_of_the_method": "as §1"}, "[7]": {"system": "large crabgrass (Digitaria sanguinalis, DIGSA)", "assay": "Pre-emerge test, greenhouse herbicide activity screening", "conditions": "pre-emerge, phytotoxicity rating 0-100 at 14 days after application", "summary_of_the_method": "as §1"}, "[8]": {"system": "sicklepod (Cassia obtusifolia, CASOB)", "assay": "Pre-emerge test, greenhouse herbicide activity screening", "conditions": "pre-emerge, phytotoxicity rating 0-100 at 14 days after application", "summary_of_the_method": "as §1"}, "[9]": {"system": "velvetleaf (Abutilon theophrasti, ABUTH)", "assay": "Pre-emerge test, greenhouse herbicide activity screening", "conditions": "pre-emerge, phytotoxicity rating 0-100 at 14 days after application", "summary_of_the_method": "as §1"}, "[10]": {"system": "field corn (Zea mays L., var. Dekalb 535, CORN)", "assay": "Pre-emerge test, crop safety", "conditions": "crop damage, pre-emerge, phytotoxicity rating 0-100 at 14 days after application", "summary_of_the_method": "(§2)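 Compounds in acetone were track-sprayed at 187 l/ha, 15–1000 g ai/ha, onto sandy loam pots. Pre-emerge seeds were sown one day before spraying, with surface watering afterwards. Post-emerge plants were at the 2–3 leaf stage and sprayed with 0.25% v/v non-ionic surfactant. Injury was rated 0–100 at 14 days.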"}, "[11]": {"system": "upland rice (Oryza sp., var. Tebonnet, RICE)", "assay": "Pre-emerge test, crop safety", "conditions": "crop damage, pre-emerge, phytotoxicity rating 0-100 at 14 days after application", "summary_of_the_method": "as §2"}, "[12]": {"system": "barnyardgrass (Echinochloa crus-galli, ECHCG)", "assay": "Post-emerge test, greenhouse herbicide activity screening", "conditions": "post-emerge, phytotoxicity rating 0-100 at 14 days after application", "summary_of_the_method": "(§3)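 Visual ratings on a 0-100 scale (0 no damage, 100 all plants dead) were taken at 14 days after treatment. Rates of 15-1000 g ai/ha in acetone, 187 l/ha, were sprayed onto soil one day after planting (pre-emerge) or onto 2-3 leaf plants with 0.25% v/v surfactant (post-emerge).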"}, "[13]": {"system": "green foxtail (Setaria viridis, SETVI)", "assay": "Post-emerge test, greenhouse herbicide activity screening", "conditions": "post-emerge, phytotoxicity rating 0-100 at 14 days after application", "summary_of_the_method": "as §3"}, "[14]": {"system": "ivyleaf morningglory (Ipomoea hederacea, IPOHE)", "assay": "Post-emerge test, greenhouse herbicide activity screening", "conditions": "post-emerge, phytotoxicity rating 0-100 at 14 days after application", "summary_of_the_method": "as §3"}, "[15]": {"system": "johnsongrass (Sorghum halepense, SORHA)", "assay": "Post-emerge test, greenhouse herbicide activity screening", "conditions": "post-emerge, phytotoxicity rating 0-100 at 14 days after application", "summary_of_the_method": "as §3"}, "[16]": {"system": "lambsquarters (Chenopodium album, CHEAL)", "assay": "Post-emerge test, greenhouse herbicide activity screening", "conditions": "post-emerge, phytotoxicity rating 0-100 at 14 days after application", "summary_of_the_method": "as §3"}, "[17]": {"system": "large crabgrass (Digitaria sanguinalis, DIGSA)", "assay": "Post-emerge test, greenhouse herbicide activity screening", "conditions": "post-emerge, phytotoxicity rating 0-100 at 14 days after application", "summary_of_the_method": "as §3"}, "[18]": {"system": "redroot pigweed (Amaranthus retroflexus, AMARE)", "assay": "Post-emerge test, greenhouse herbicide activity screening", "conditions": "post-emerge, phytotoxicity rating 0-100 at 14 days after application", "summary_of_the_method": "as §3"}, "[19]": {"system": "sicklepod (Cassia obtusifolia, CASOB)", "assay": "Post-emerge test, greenhouse herbicide activity screening", "conditions": "post-emerge, phytotoxicity rating 0-100 at 14 days after application", "summary_of_the_method": "as §3"}, "[20]": {"system": "velvetleaf (Abutilon theophrasti, ABUTH)", "assay": "Post-emerge test, greenhouse herbicide activity screening", "conditions": "post-emerge, phytotoxicity rating 0-100 at 14 days after application", "summary_of_the_method": "as §3"}, "[21]": {"system": "field corn (Zea mays L., var. Dekalb 535, CORN)", "assay": "Post-emerge test, crop safety", "conditions": "post-emerge, crop damage rating 0-100 at 14 days after application", "summary_of_the_method": "(§4)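 Each test used a mechanized track sprayer delivering 187 l/ha of acetone solution at 15–1000 g ai/ha. Post-emerge foliage at 2–3 leaves was treated with added 0.25% v/v non-ionic surfactant and bottom-watered only. Injury was assessed on day 14, where 100 means total kill.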"}, "[22]": {"system": "upland rice (Oryza sp., var. Tebonnet, RICE)", "assay": "Post-emerge test, crop safety", "conditions": "post-emerge, crop damage rating 0-100 at 14 days after application", "summary_of_the_method": "as §4"}}, "data": [{"compound": "Nc1c(OC2CCCC2)c(Cl)cc(F)c1N1C(=O)C2=C(CCCC2)C1=O", "note": "[Compound 8-5, N-(2-amino-4-chloro-3-cyclopentyloxy-6-fluorophenyl)tetrahydrophthalimide]", "values": [{"measurement": "Pre-emerge Herbicidal Activity AMARE", "setting": "[1]; rate 63 g ai/ha", "result": 40}, {"measurement": "Pre-emerge Herbicidal Activity AMARE", "setting": "[1]; rate 250 g ai/ha", "result": 95}, {"measurement": "Pre-emerge Herbicidal Activity ECHCG", "setting": "[2]; rate 63 g ai/ha", "result": 0}, {"measurement": "Pre-emerge Herbicidal Activity ECHCG", "setting": "[2]; rate 250 g ai/ha", "result": 0}, {"measurement": "Pre-emerge Herbicidal Activity SETVI", "setting": "[3]; rate 63 g ai/ha", "result": 70}, {"measurement": "Pre-emerge Herbicidal Activity SETVI", "setting": "[3]; rate 250 g ai/ha", "result": 90}, {"measurement": "Pre-emerge Herbicidal Activity IPOHE", "setting": "[4]; rate 63 g ai/ha", "result": 0}, {"measurement": "Pre-emerge Herbicidal Activity IPOHE", "setting": "[4]; rate 250 g ai/ha", "result": 0}, {"measurement": "Pre-emerge Herbicidal Activity SORHA", "setting": "[5]; rate 63 g ai/ha", "result": 0}, {"measurement": "Pre-emerge Herbicidal Activity SORHA", "setting": "[5]; rate 250 g ai/ha", "result": 20}, {"measurement": "Pre-emerge Herbicidal Activity CHEAL", "setting": "[6]; rate 63 g ai/ha", "result": 0}, {"measurement": "Pre-emerge Herbicidal Activity CHEAL", "setting": "[6]; rate 250 g ai/ha", "result": 80}, {"measurement": "Pre-emerge Herbicidal Activity DIGSA", "setting": "[7]; rate 63 g ai/ha", "result": 0}, {"measurement": "Pre-emerge Herbicidal Activity DIGSA", "setting": "[7]; rate 250 g ai/ha", "result": 0}, {"measurement": "Pre-emerge Herbicidal Activity CASOB", "setting": "[8]; rate 63 g ai/ha", "result": 0}, {"measurement": "Pre-emerge Herbicidal Activity CASOB", "setting": "[8]; rate 250 g ai/ha", "result": 40}, {"measurement": "Pre-emerge Herbicidal Activity ABUTH", "setting": "[9]; rate 63 g ai/ha", "result": 0}, {"measurement": "Pre-emerge Herbicidal Activity ABUTH", "setting": "[9]; rate 250 g ai/ha", "result": 70}, {"measurement": "Pre-emerge Herbicidal Activity CORN", "setting": "[10]; rate 63 g ai/ha", "result": 0}, {"measurement": "Pre-emerge Herbicidal Activity CORN", "setting": "[10]; rate 250 g ai/ha", "result": 0}, {"measurement": "Pre-emerge Herbicidal Activity RICE", "setting": "[11]; rate 63 g ai/ha", "result": 0}, {"measurement": "Pre-emerge Herbicidal Activity RICE", "setting": "[11]; rate 250 g ai/ha", "result": 0}, {"measurement": "Post-emerge Herbicidal Activity ECHCG", "setting": "[12]; 63 g ai/ha", "result": 0}, {"measurement": "Post-emerge Herbicidal Activity ECHCG", "setting": "[12]; 250 g ai/ha", "result": 0}, {"measurement": "Post-emerge Herbicidal Activity SETVI", "setting": "[13]; 63 g ai/ha", "result": 0}, {"measurement": "Post-emerge Herbicidal Activity SETVI", "setting": "[13]; 250 g ai/ha", "result": 20}, {"measurement": "Post-emerge Herbicidal Activity IPOHE", "setting": "[14]; 63 g ai/ha", "result": 0}, {"measurement": "Post-emerge Herbicidal Activity IPOHE", "setting": "[14]; 250 g ai/ha", "result": 40}, {"measurement": "Post-emerge Herbicidal Activity SORHA", "setting": "[15]; 63 g ai/ha", "result": 0}, {"measurement": "Post-emerge Herbicidal Activity SORHA", "setting": "[15]; 250 g ai/ha", "result": 0}, {"measurement": "Post-emerge Herbicidal Activity CHEAL", "setting": "[16]; 63 g ai/ha", "result": 70}, {"measurement": "Post-emerge Herbicidal Activity CHEAL", "setting": "[16]; 250 g ai/ha", "result": 70}, {"measurement": "Post-emerge Herbicidal Activity DIGSA", "setting": "[17]; 63 g ai/ha", "result": 0}, {"measurement": "Post-emerge Herbicidal Activity DIGSA", "setting": "[17]; 250 g ai/ha", "result": 0}, {"measurement": "Post-emerge Herbicidal Activity AMARE", "setting": "[18]; 63 g ai/ha", "result": 40}, {"measurement": "Post-emerge Herbicidal Activity AMARE", "setting": "[18]; 250 g ai/ha", "result": 100}, {"measurement": "Post-emerge Herbicidal Activity CASOB", "setting": "[19]; 63 g ai/ha", "result": 0}, {"measurement": "Post-emerge Herbicidal Activity CASOB", "setting": "[19]; 250 g ai/ha", "result": 10}, {"measurement": "Post-emerge Herbicidal Activity ABUTH", "setting": "[20]; 63 g ai/ha", "result": 70}, {"measurement": "Post-emerge Herbicidal Activity ABUTH", "setting": "[20]; 250 g ai/ha", "result": 90}, {"measurement": "Post-emerge Herbicidal Activity CORN", "setting": "[21]; 63 g ai/ha", "result": 0}, {"measurement": "Post-emerge Herbicidal Activity CORN", "setting": "[21]; 250 g ai/ha", "result": 0}, {"measurement": "Post-emerge Herbicidal Activity RICE", "setting": "[22]; 63 g ai/ha", "result": 40}, {"measurement": "Post-emerge Herbicidal Activity RICE", "setting": "[22]; 250 g ai/ha", "result": 50}]}]}
